Laboratory results from ChEMBL document CHEMBL6134778, “Spiro-Azetidine Oxindoles as Long-Acting Injectables for Pre-Exposure Prophylaxis against Respiratory Syncytial Virus Infections” (J Med Chem, 2024).
Values after ≈ are worked out from the molar mass of the structure shown.

Assays:
[1] = test system: Respiratory syncytial virus; test: Antiviral activity against RSV A2 harboring eGFP infected in human HeLa cells assessed as reduction in virus replication measured after 3 days by laser microscopy; format: functional, organism-based; conditions: 72 h
[2] = test system: Respiratory syncytial virus; test: Antiviral activity against RSV A2 harboring eGFP infected in human HeLa cells assessed as reduction in virus replication by measuring 3X protein-adjusted effective concentration for 90% inhibition measured after 3 days in presence of human serum albumin and alpha(1)-acid glycoprotein by laser microscopy; format: functional; conditions: time 3 day
HeLa = test: Cytotoxicity against human HeLa cells assessed as reduction in cell viability at highest concentration measured after 3 days by ATPlite assay; format: toxicity, cell-based; conditions: 72 h, time 3 day
[3] = Chromatographic hydrophobicity index, logD of the compound at pH 7.4 by UPLC analysis; format: physicochemical; conditions: buffer
[4] = Equilibrium solubility of the compound […] at pH 7 measured after 3 days by LC-MS/MS analysis; format: physicochemical; conditions: time 3 day
[5] = Thermodynamic solubility in aqueous buffer at pH 7 incubated for 24 hrs by UPLC analysis; format: physicochemical; conditions: read-out: Therm_solubility
[6] = Intrinsic clearance in human liver microsomes assessed per mg protein at 1 uM measured after 60 mins in presence of NADPH by LC-MS/MS analysis; format: ADME, Microsome; conditions: read-out: CLH
[7] = Intrinsic clearance in human hepatocytes assessed per million cells at 1 uM measured after 180 mins by LC-MS/MS analysis; format: ADME, cell-based, Hepatocyte; conditions: read-out: CLH
[8] = Clearance in Sprague-Dawley rat at 1 mg/kg, iv by LC-MS/MS analysis; format: ADME, organism-based; conditions: in vivo
[9] = Volume of distribution at steady state in Sprague-Dawley rat at 1 mg/kg, iv by LC-MS/MS analysis; format: ADME, organism-based; conditions: in vivo, read-out: Vdss
Rattus norvegicus [10] = test: Particle size for the 50th percentile of the cumulative volume distribution in Sprague-Dawley rat at 50 mg/kg, IM […]; format: ADME, organism-based; conditions: in vivo
Rattus norvegicus [11] = test: Release rate constant in Sprague-Dawley rat at 50 mg/kg, IM measured over 12 weeks by LC-MS/MS analysis; format: ADME, organism-based; conditions: in vivo, 2016 h
[12] = Bioavailability in Sprague-Dawley rat assessed as dose released at 50 mg/kg, IM measured over 12 weeks by LC-MS/MS analysis; format: ADME, organism-based; conditions: in vivo
[13] = Clearance in Beagle dog at 0.25 mg/kg, iv by LC-MS/MS analysis; format: ADME, organism-based, Canis lupus familiaris; conditions: in vivo
[14] = Volume of distribution at steady state in Beagle dog at 0.25 mg/kg, iv by LC-MS/MS analysis; format: ADME, organism-based, Canis lupus familiaris; conditions: in vivo, read-out: Vdss
Canis familiaris [15] = test: Particle size for the 50th percentile of the cumulative volume distribution in Beagle dog at 20 mg/kg, IM […]; format: ADME, organism-based, Canis lupus familiaris; conditions: in vivo
Canis familiaris [16] = test: Release rate constant in Beagle dog at 20 mg/kg, IM by LC-MS/MS analysis; format: ADME, organism-based, Canis lupus familiaris; conditions: in vivo
[17] = Bioavailability in Beagle dog assessed as dose released at 20 mg/kg, IM by LC-MS/MS analysis; format: ADME, organism-based, Canis lupus familiaris; conditions: in vivo
[18] = test system: Respiratory syncytial virus; test: Antiviral activity against RSV A/07-041911 harboring eGFP infected in human HeLa cells assessed as reduction in virus replication measured after 3 days by laser microscopy; format: functional, organism-based; conditions: A/07-041911, HeLa, 72 h
[19] = test system: Respiratory syncytial virus; test: Antiviral activity against RSV A/11-014288 harboring eGFP infected in human HeLa cells assessed as reduction in virus replication measured after 3 days by laser microscopy; format: functional, organism-based; conditions: A/11-014288, HeLa, 72 h
[20] = test system: Respiratory syncytial virus; test: Antiviral activity against RSV A/12-049454 harboring eGFP infected in human HeLa cells assessed as reduction in virus replication measured after 3 days by laser microscopy; format: functional, organism-based; conditions: A/12-049454, HeLa, 72 h
[21] = test system: Respiratory syncytial virus; test: Antiviral activity against RSV A/13-000323 harboring eGFP infected in human HeLa cells assessed as reduction in virus replication measured after 3 days by laser microscopy; format: functional, organism-based; conditions: A/13-000323, HeLa, 72 h
[22] = test system: Respiratory syncytial virus; test: Antiviral activity against RSV A/18-001989 harboring eGFP infected in human HeLa cells assessed as reduction in virus replication measured after 3 days by laser microscopy; format: functional, organism-based; conditions: A/18-001989, HeLa, 72 h
[23] = test system: Respiratory syncytial virus; test: Antiviral activity against RSV rgRSV224 (A2-GFP) harboring eGFP infected in human HeLa cells assessed as reduction in virus replication measured after 3 days by laser microscopy; format: functional, organism-based; conditions: 72 h
[24] = test system: Respiratory syncytial virus; test: Antiviral activity against RSV pSynk-A2F (A2-mKate2) harboring eGFP infected in human HeLa cells assessed as reduction in virus replication measured after 3 days by laser microscopy; format: functional, organism-based; conditions: 72 h
[25] = test system: Respiratory syncytial virus; test: Antiviral activity against RSV A2 harboring V76A/Y117H/N517I/L172Q mutant infected in human HeLa cells assessed as reduction in virus replication measured after 3 days by laser microscopy; format: functional, organism-based; conditions: 72 h
[26] = test system: Respiratory syncytial virus; test: Antiviral activity against RSV A Memphis 37 harboring eGFP infected in human HeLa cells assessed as reduction in virus replication measured after 3 days by laser microscopy; format: functional, organism-based; conditions: A Memphis 37, HeLa, 72 h
[27] = test system: Respiratory syncytial virus; test: Antiviral activity against RSV A Long harboring eGFP infected in human HeLa cells assessed as reduction in virus replication measured after 3 days by laser microscopy; format: functional, organism-based; conditions: 72 h
[28] = test system: Respiratory syncytial virus; test: Antiviral activity against RSV B/03-034613 harboring eGFP infected in human HeLa cells assessed as reduction in virus replication measured after 3 days by laser microscopy; format: functional, organism-based; conditions: B/03-034613, HeLa, 72 h
[29] = test system: Respiratory syncytial virus; test: Antiviral activity against RSV B/05-036549 harboring eGFP infected in human HeLa cells assessed as reduction in virus replication measured after 3 days by laser microscopy; format: functional, organism-based; conditions: B/05-036549, HeLa, 72 h
[30] = test system: Respiratory syncytial virus; test: Antiviral activity against RSV B/11-050703 harboring eGFP infected in human HeLa cells assessed as reduction in virus replication measured after 3 days by laser microscopy; format: functional, organism-based; conditions: B/11-050703, HeLa, 72 h
[31] = test system: Respiratory syncytial virus; test: Antiviral activity against RSV B/14-006938 harboring eGFP infected in human HeLa cells assessed as reduction in virus replication measured after 3 days by laser microscopy; format: functional, organism-based; conditions: B/14-006938, HeLa, 72 h
[32] = test system: Respiratory syncytial virus; test: Antiviral activity against RSV B/17-058221 harboring eGFP infected in human HeLa cells assessed as reduction in virus replication measured after 3 days by laser microscopy; format: functional, organism-based; conditions: B/17-058221, HeLa, 72 h
[33] = test system: Respiratory syncytial virus; test: Antiviral activity against RSV B/18-002094 harboring eGFP infected in human HeLa cells assessed as reduction in virus replication measured after 3 days by laser microscopy; format: functional, organism-based; conditions: B/18-002094, HeLa, 72 h
[34] = test system: Respiratory syncytial virus; test: Antiviral activity against RSV B Wash/18537 harboring eGFP infected in human HeLa cells assessed as reduction in virus replication measured after 3 days by laser microscopy; format: functional, organism-based; conditions: B Wash/18537, HeLa, 72 h
[35] = test system: Respiratory syncytial virus; test: Antiviral activity against RSV B pSynk-18537F (18537-mKate2) harboring eGFP infected in human HeLa cells assessed as reduction in virus replication measured after 3 days by laser microscopy; format: functional, organism-based; conditions: 72 h
[36] = test system: Respiratory syncytial virus; test: Antiviral activity against RSV A2 infected in PO or IM dosed BALB/c mouse assessed as reduction in viral titer in BALF by plaque assay; format: functional, organism-based; conditions: human respiratory syncytial virus
[37] = test system: Respiratory syncytial virus; test: Antiviral activity against RSV A Long infected in PO dosed cotton rat assessed as reduction in viral titer in BALF administered twice day from 1 day prior to infection to 3 days post-infection by plaque assay; format: functional, organism-based; conditions: human respiratory syncytial virus
[38] = Intrinsic clearance in human hepatocytes assessed per million cells measured after 6 hrs using tritiated compound by LC-MS/MS analysis; format: ADME, cell-based, Hepatocyte; conditions: read-out: CLH

SMILES: CC(C)(O)C(=O)N1CC2(C1)C(=O)N(Cc1nc3cc(Cl)ccc3n1CCCC(F)(F)F)c1ccccc12
- EC50 [1]: 1 nM
- protein-adjusted EC90 [2]: 0.031 µg/mL
- Activity (HeLa): Non-toxic
- CHI [3]: 2.84
- solubility at 72 h [4]: 0.74 µM (≈ 0.396 µg/mL)
- solubility thermodynamic at 24 h [5]: < 0.1 µg/mL
- microsomal CLint at 1 µM [6]: < 7.7 µL/min/mg
- hepatocyte CLint at 1 µM [7]: < 1.2 µL/min/1e6 cells
- clearance [8]: 9.3 mL/min/kg
- Vd [9]: 2.78 L/kg
- Median particle size (D50) (Rattus norvegicus [10]): 1.02 um
- Ka (Rattus norvegicus [11]): 0.001 h⁻¹
- bioavailability [12]: 85%
- clearance [13]: 3.56 mL/min/kg
- Vd [14]: 1.77 L/kg
- Particle size (D50) (Canis familiaris [15]): 1.03 um
- Ka (Canis familiaris [16]): 0.003 h⁻¹
- bioavailability [17]: 102%

SMILES: O=C1N(Cc2nc3cc(Cl)ccc3n2CCCC(F)(F)F)c2cnccc2C12CN(S(=O)(=O)C1CC1)C2
- EC50 [1]: 0.43 nM
- protein-adjusted EC90 [2]: 0.0082 µg/mL
- Activity (HeLa): Non-toxic
- CHI [3]: 2.81
- solubility at 72 h [4]: < 0.13 µM
- solubility thermodynamic at 24 h [5]: < 0.1 µg/mL
- microsomal CLint at 1 µM [6]: < 7.7 µL/min/mg
- hepatocyte CLint at 1 µM [7]: < 1.2 µL/min/1e6 cells
- clearance [8]: 43.5 mL/min/kg
- Vd [9]: 2.48 L/kg
- Median particle size (D50) (Rattus norvegicus [10]): 15.6 um
- Ka (Rattus norvegicus [11]): 0.003 h⁻¹
- bioavailability [12]: 88%
- clearance [13]: 0.99 mL/min/kg
- Vd [14]: 2.65 L/kg
- Particle size (D50) (Canis familiaris [15]): 15.6 um
- Ka (Canis familiaris [16]): 0.01 h⁻¹
- bioavailability [17]: 93%

SMILES: CS(=O)(=O)N1CC2(C1)C(=O)N(Cc1nc3cc(Cl)ccc3n1CCCC(F)(F)F)c1ccccc12
- EC50 [1]: 0.78 nM
- protein-adjusted EC90 [2]: 0.034 µg/mL
- Activity (HeLa): Non-toxic
- CHI [3]: 3.39
- solubility at 72 h [4]: < 0.04 µM
- solubility thermodynamic at 24 h [5]: < 0.1 µg/mL
- microsomal CLint at 1 µM [6]: < 7.7 µL/min/mg
- clearance [8]: 18.5 mL/min/kg
- Vd [9]: 4.43 L/kg
- Median particle size (D50) (Rattus norvegicus [10]): 6.38 um
- Ka (Rattus norvegicus [11]): 0 h⁻¹
- bioavailability [12]: 52%
- clearance [13]: 0.46 mL/min/kg
- Vd [14]: 5.3 L/kg
- Particle size (D50) (Canis familiaris [15]): 5.06 um
- Ka (Canis familiaris [16]): 0 h⁻¹
- bioavailability [17]: 50%
- EC50 [18]: 1.6 nM
- EC50 [19]: 1.6 nM
- EC50 [20]: 1.6 nM
- EC50 [21]: 1.6 nM
- EC50 [22]: 1.6 nM
- EC50 [23]: 1.6 nM
- EC50 [24]: 1.6 nM
- EC50 [25]: 1.6 nM
- EC50 [26]: 1.6 nM
- EC50 [27]: 1.6 nM
- EC50 [28]: 1.6 nM
- EC50 [29]: 1.6 nM
- EC50 [30]: 1.6 nM
- EC50 [31]: 1.6 nM
- EC50 [32]: 1.6 nM
- EC50 [33]: 1.6 nM
- EC50 [34]: 1.6 nM
- EC50 [35]: 1.6 nM
- EC50 [36]: 0.088 µg/mL (≈ 0.167 µM)
- EC50 [37]: 0.026 µg/mL (≈ 0.0493 µM)
- hepatocyte CLint [38]: < 1.2 µL/min/1e6 cells
